According to patent US8247211B2, “Glycopeptide antibiotics” (American Cyanamid Company, priority 2001, dated 2012):
In brackets after ≈: the same amount, converted by molar mass. Each block holds one compound with its values, some of them ahead of it.

How the values were obtained:
Assay in all cases: In vitro antibacterial evaluation: minimum inhibitory concentration (MIC), broth dilution method
Type in all cases: cell-based
Streptococcus sp. = details: 18 hours at 35° C.
Outline: (§1)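 Values are minimum inhibitory concentrations, meaning the smallest antibiotic concentration that stops growth of the organism. They come from broth dilution in Muller-Hinton II […] per NCCLS guidance (M7-A2), using 5×10^5 CFU/mL and concentrations from 64 to 0.06 μg/mL.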

Enterococcus sp. = details: 18 hours at 35° C.
Outline: as §1

Staphylococcus sp. = details: for MIC Staphylococcus aureus (ATCC 29213): strain ATCC 29213; for MIC Staphylococcus aureus (GC 1131): strain GC 1131; for MIC Staphylococcus aureus (GC 4541): strain GC 4541; for MIC Staphylococcus aureus-SMITH (GC 4543): strain GC 4543; for MIC Coagulase Negative Staphylococcus (GC 4547): strain GC 4547; for MIC Coagulase Negative Staphylococcus (GC 4548): strain GC 4548; for MIC Coagulase Negative Staphylococcus (GC 4549): strain GC 4549; for MIC Coagulase Negative Staphylococcus (GC 6257): strain GC 6257
Outline: as §1

Escherichia coli = details: 18 hours at 35° C.
Outline: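 Inoculum: 5×10^5 CFU/mL. Range: 64-0.06 μg/mL. Medium: Muller-Hinton II […]; NCCLS M7-A2 broth dilution. Endpoint: lowest concentration inhibiting growth. Strains include methicillin-, penicillin- and/or vancomycin-resistant clinical isolates.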

[1] = Streptococcus pneumoniae (ATCC 6301)
[2] = Streptococcus pneumoniae (GC 1894)
[3] = broth dilution, inoculum 5×10^5 CFU/mL
[4] = Enterococcus faecalis (ATCC 29212)
[5] = Enterococcus faecalis (GC 2242)
[6] = Enterococcus faecalis (GC 6189)

- MIC Streptococcus pneumoniae (ATCC 6301) (Streptococcus sp.; [1]): <0.06 µg/mL
- MIC Streptococcus pneumoniae (GC 1894) (Streptococcus sp.; [2]): <0.06 µg/mL
- MIC Streptococcus pneumoniae (ATCC 6301) (Streptococcus sp.; [3]): <0.06 µg/mL
- MIC Streptococcus pneumoniae (GC 1894) (Streptococcus sp.; [3]): <0.06 µg/mL
- MIC Enterococcus avium (GC 4558) (Enterococcus sp.; Enterococcus avium (GC 4558)): 4 µg/mL (≈ 2.74 µM)
- MIC Enterococcus faecalis (ATCC 29212) (Enterococcus sp.; [4]): 4 µg/mL (≈ 2.74 µM)
- MIC Enterococcus faecalis (GC 2242) (Enterococcus sp.; [5]): 4 µg/mL (≈ 2.74 µM)
- MIC Enterococcus faecalis (GC 6189) (Enterococcus sp.; [6]): 1 µg/mL (≈ 0.685 µM)
- MIC Enterococcus faecium (GC 2243) (Enterococcus sp.; Enterococcus faecium (GC 2243)): 1 µg/mL (≈ 0.685 µM)
- MIC Enterococcus faecium (GC 4556) (Enterococcus sp.; Enterococcus faecium (GC 4556)): 4 µg/mL (≈ 2.74 µM)
- MIC Enterococcus avium (GC 4558) (Enterococcus sp.; [3]): 4 µg/mL (≈ 2.74 µM)
- MIC Enterococcus faecalis (ATCC 29212) (Enterococcus sp.; [3]): 4 µg/mL (≈ 2.74 µM)
- MIC Enterococcus faecalis (GC 2242) (Enterococcus sp.; [3]): 4 µg/mL (≈ 2.74 µM)
- MIC Enterococcus faecalis (GC 6189) (Enterococcus sp.; [3]): 1 µg/mL (≈ 0.685 µM)
- MIC Enterococcus faecium (GC 2243) (Enterococcus sp.; [3]): 1 µg/mL (≈ 0.685 µM)
- MIC Enterococcus faecium (GC 4556) (Enterococcus sp.; [3]): 4 µg/mL (≈ 2.74 µM)
- MIC Staphylococcus aureus (ATCC 29213) (Staphylococcus sp.): 4 µg/mL (≈ 2.74 µM)
- MIC Staphylococcus aureus (GC 1131) (Staphylococcus sp.): 2 µg/mL (≈ 1.37 µM)
- MIC Staphylococcus aureus (GC 4541) (Staphylococcus sp.): 2 µg/mL (≈ 1.37 µM)
- MIC Staphylococcus aureus-SMITH (GC 4543) (Staphylococcus sp.): 1 µg/mL (≈ 0.685 µM)
- MIC Coagulase Negative Staphylococcus (GC 4547) (Staphylococcus sp.): 4 µg/mL (≈ 2.74 µM)
- MIC Coagulase Negative Staphylococcus (GC 4548) (Staphylococcus sp.): 1 µg/mL (≈ 0.685 µM)
- MIC Coagulase Negative Staphylococcus (GC 4549) (Staphylococcus sp.): 1 µg/mL (≈ 0.685 µM)
- MIC Coagulase Negative Staphylococcus (GC 6257) (Staphylococcus sp.): 2 µg/mL (≈ 1.37 µM)
- MIC Escherichia coli (ATCC 25922) (Escherichia coli): 64 µg/mL (≈ 43.8 µM)
- MIC Escherichia coli (GC 4559) (Escherichia coli): >64 µg/mL
- MIC Escherichia coli (GC 4560) (Escherichia coli): 4 µg/mL (≈ 2.74 µM)
SMILES: CC(c1ccccc1)C1NC(=O)CNC(=O)C(CO)NC(=O)C(C(O)C2CNC(=N)N2C2OC(CO)C(O)C(O)C2O)NC(=O)C(C(O)C2CNC(=N)N2)NC(=O)C(Cc2ccc(OC3OC(CO)C(OC4OC5COC6(CCCCCCCCCCC6)OC5C(O)C4O)C(O)C3O)cc2)NC1=O (stereo not drawn) [Example 209, Cyclo[glycyl-β-methylphenylalanyl-O-[4-O-(4,6-O-cyclododecylidenehexopyranosyl)-hexopyranosyl]tyrosyl-3-(2-iminoimidazolidin-4-yl)seryl-3-(3-hexopyranosyl-2-iminoimidazolidin-4-yl)serylseryl]]

- MIC Streptococcus agalactiae (GC 4564) (Streptococcus sp.; Streptococcus agalactiae (GC 4564)): 0.25 µg/mL (≈ 0.17 µM)
- MIC Streptococcus pneumoniae (ATCC 6301) (Streptococcus sp.; [1]): 0.25 µg/mL (≈ 0.17 µM)
- MIC Streptococcus pneumoniae (GC 1894) (Streptococcus sp.; [2]): <0.06 µg/mL
- MIC Streptococcus pneumoniae (GC 4565) (Streptococcus sp.; Streptococcus pneumoniae (GC 4565)): <0.06 µg/mL
- MIC Streptococcus pyogenes (GC 4563) (Streptococcus sp.; Streptococcus pyogenes (GC 4563)): 2 µg/mL (≈ 1.36 µM)
- MIC Streptococcus agalactiae (GC 4564) (Streptococcus sp.; [3]): 0.25 µg/mL (≈ 0.17 µM)
- MIC Streptococcus pneumoniae (ATCC 6301) (Streptococcus sp.; [3]): 0.25 µg/mL (≈ 0.17 µM)
- MIC Streptococcus pneumoniae (GC 1894) (Streptococcus sp.; [3]): <0.06 µg/mL
- MIC Streptococcus pneumoniae (GC 4565) (Streptococcus sp.; [3]): <0.06 µg/mL
- MIC Streptococcus pyogenes (GC 4563) (Streptococcus sp.; [3]): 2 µg/mL (≈ 1.36 µM)
- MIC Enterococcus avium (GC 4558) (Enterococcus sp.; Enterococcus avium (GC 4558)): 16 µg/mL (≈ 10.9 µM)
- MIC Enterococcus faecalis (ATCC 29212) (Enterococcus sp.; [4]): 32 µg/mL (≈ 21.7 µM)
- MIC Enterococcus faecalis (GC 2242) (Enterococcus sp.; [5]): 16 µg/mL (≈ 10.9 µM)
- MIC Enterococcus faecalis (GC 2691) (Enterococcus sp.; Enterococcus faecalis (GC 2691)): 8 µg/mL (≈ 5.43 µM)
- MIC Enterococcus faecalis (GC 3059) (Enterococcus sp.; Enterococcus faecalis (GC 3059)): 32 µg/mL (≈ 21.7 µM)
- MIC Enterococcus faecalis (GC 4552) (Enterococcus sp.; Enterococcus faecalis (GC 4552)): 32 µg/mL (≈ 21.7 µM)
- MIC Enterococcus faecalis (GC 4553) (Enterococcus sp.; Enterococcus faecalis (GC 4553)): 16 µg/mL (≈ 10.9 µM)
- MIC Enterococcus faecalis (GC 4554) (Enterococcus sp.; Enterococcus faecalis (GC 4554)): 32 µg/mL (≈ 21.7 µM)
- MIC Enterococcus faecalis (GC 6189) (Enterococcus sp.; [6]): 16 µg/mL (≈ 10.9 µM)
- MIC Enterococcus faecium (GC 2243) (Enterococcus sp.; Enterococcus faecium (GC 2243)): 32 µg/mL (≈ 21.7 µM)
- MIC Enterococcus faecium (GC 4556) (Enterococcus sp.; Enterococcus faecium (GC 4556)): 32 µg/mL (≈ 21.7 µM)
- MIC Enterococcus faecium (GC 4557) (Enterococcus sp.; Enterococcus faecium (GC 4557)): 32 µg/mL (≈ 21.7 µM)
- MIC Enterococcus avium (GC 4558) (Enterococcus sp.; [3]): 16 µg/mL (≈ 10.9 µM)
- MIC Enterococcus faecalis (ATCC 29212) (Enterococcus sp.; [3]): 32 µg/mL (≈ 21.7 µM)
- MIC Enterococcus faecalis (GC 2242) (Enterococcus sp.; [3]): 16 µg/mL (≈ 10.9 µM)
- MIC Enterococcus faecalis (GC 2691) (Enterococcus sp.; [3]): 8 µg/mL (≈ 5.43 µM)
- MIC Enterococcus faecalis (GC 3059) (Enterococcus sp.; [3]): 32 µg/mL (≈ 21.7 µM)
- MIC Enterococcus faecalis (GC 4552) (Enterococcus sp.; [3]): 32 µg/mL (≈ 21.7 µM)
- MIC Enterococcus faecalis (GC 4553) (Enterococcus sp.; [3]): 16 µg/mL (≈ 10.9 µM)
- MIC Enterococcus faecalis (GC 4554) (Enterococcus sp.; [3]): 32 µg/mL (≈ 21.7 µM)
- MIC Enterococcus faecalis (GC 6189) (Enterococcus sp.; [3]): 16 µg/mL (≈ 10.9 µM)
- MIC Enterococcus faecium (GC 2243) (Enterococcus sp.; [3]): 32 µg/mL (≈ 21.7 µM)
- MIC Enterococcus faecium (GC 4556) (Enterococcus sp.; [3]): 32 µg/mL (≈ 21.7 µM)
- MIC Enterococcus faecium (GC 4557) (Enterococcus sp.; [3]): 32 µg/mL (≈ 21.7 µM)
- MIC Staphylococcus aureus (ATCC 29213) (Staphylococcus sp.): 32 µg/mL (≈ 21.7 µM)
- MIC Staphylococcus aureus (GC 1131) (Staphylococcus sp.): 32 µg/mL (≈ 21.7 µM)
- MIC Staphylococcus aureus (GC 3051) (Staphylococcus sp.; strain GC 3051): 32 µg/mL (≈ 21.7 µM)
- MIC Staphylococcus aureus (GC 3053) (Staphylococcus sp.; strain GC 3053): 32 µg/mL (≈ 21.7 µM)
- MIC Staphylococcus aureus (GC 4541) (Staphylococcus sp.): 32 µg/mL (≈ 21.7 µM)
- MIC Staphylococcus aureus (GC 4542) (Staphylococcus sp.; strain GC 4542): 32 µg/mL (≈ 21.7 µM)
- MIC Staphylococcus aureus-SMITH (GC 4543) (Staphylococcus sp.): 32 µg/mL (≈ 21.7 µM)
- MIC Staphylococcus aureus (GC 4544) (Staphylococcus sp.; strain GC 4544): 32 µg/mL (≈ 21.7 µM)
- MIC Staphylococcus aureus (GC 4545) (Staphylococcus sp.; strain GC 4545): 32 µg/mL (≈ 21.7 µM)
- MIC Coagulase Negative Staphylococcus (GC 4547) (Staphylococcus sp.): 32 µg/mL (≈ 21.7 µM)
- MIC Coagulase Negative Staphylococcus (GC 4548) (Staphylococcus sp.): 32 µg/mL (≈ 21.7 µM)
- MIC Coagulase Negative Staphylococcus (GC 4549) (Staphylococcus sp.): 8 µg/mL (≈ 5.43 µM)
- MIC Coagulase Negative Staphylococcus (GC 4551) (Staphylococcus sp.; strain GC 4551): 32 µg/mL (≈ 21.7 µM)
- MIC Coagulase Negative Staphylococcus (GC 6257) (Staphylococcus sp.): 32 µg/mL (≈ 21.7 µM)
- MIC Escherichia coli (ATCC 25922) (Escherichia coli): >64 µg/mL
- MIC Escherichia coli (GC 4559) (Escherichia coli): >64 µg/mL
- MIC Escherichia coli (GC 4560) (Escherichia coli): 64 µg/mL (≈ 43.4 µM)
SMILES: CC(c1ccccc1)C1NC(=O)CNC(=O)C(CO)NC(=O)C(C(O)C2CNC(=N)N2C2OC(CO)C(O)C(O)C2O)NC(=O)C(C(O)C2CNC(=N)N2)NC(=O)C(Cc2ccc(OC3OC(CO)C(OC4OC5COC6(CCCCCCCCCCCC6)OC5C(O)C4O)C(O)C3O)cc2)NC1=O (stereo not shown) [Example 210]
- MIC Staphylococcus haemolyticus (GC 4546) (Staphylococcus sp.; strain GC 4546): 32 µg/mL (≈ 21.7 µM)
